From the supplement of paper PMC11208160
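Also: IS621 bridge recombinase in Escherichia coli cells against a fixed T5 target plasmid.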

Assay: recombinant UMI read abundance after kanamycin selection (control-corrected) (log10(CPM+1)); higher = more efficient recombination; extreme values may be limits of the assay; sequences stand for … in AGTGCAGAGAAAATCGGCCAGTTTTCTCTGCCTGCAGTCCGCATGCCGTGGGACCCCTTGGGTTCTAACCTGTTGCCTAGATTTATGCAGCGGACTGCCTTTCTCCCAAAGTGATAAACCGG…AGGTTGGTTTCACT; site = the 11-nt donor
Outline: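 Counts of recombinant UMIs were reported as log10(CPM+1). Before that, they were converted to CPM, averaged over replicates and scaled using control-derived factors. They came from PCR across the donor–target junction after Escherichia coli carrying the pair library and target plasmid was plated on IPTG (0.07 mM) plus kanamycin, or unselected, in two replicates each.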
With “CATCCAACATGGACCGGTTTTCCCGGTAATCCGTATTTGTC (site CATCCAACTGA)” the “recombinant UMI read abundance (log10)” value was 2.17.
In the case of “CATCGCACATGGACCGGTTTTCCCGGTAATCCGTATTTGGC (site CATCGCACTGC)”, the “recombinant UMI read abundance (log10)” value is reported as 2.26.
For “CATCGCCCATGGACCGGTTTTCCCGGTAATCCGTATTTGAT (site CATCGCCCTAT)”, the “recombinant UMI read abundance (log10)” value was 0.725.
For “CATCTCTCATGGACCGGTTTTCCCGGTAATCCGTATTTGTA (site CATCTCTCTTA)”, the “recombinant UMI read abundance (log10)” value was 2.66.
With “CATCTCTCATGGACCGGTTTTCCCGGTAATCCGTATTTGTA (site CCTCTCTCTTA)” the “recombinant UMI read abundance (log10)” value was 1.42.
With “CATCTCTCATGGACCGGTTTTCCCGGTAATCCGTATTTGTA (site CGTCTCTCTTA)” the “recombinant UMI read abundance (log10)” value was 1.23.
In the case of “CATCTCTCATGGACCGGTTTTCCCGGTAATCCGTATTTGTA (site CTTCTCTCTTA)”, the “recombinant UMI read abundance (log10)” value is reported as 1.98.
In the case of “CATGAGGCATGGACCGGTTTTCCCGGTAATCCGTATTTGGT (site CATGAGGCTAC)”, the “recombinant UMI read abundance (log10)” value is reported as 1.12.
With “CATGCCTCATGGACCGGTTTTCCCGGTAATCCGTATTTGCT (site CATGCCTCTAG)” the “recombinant UMI read abundance (log10)” value was 2.76.
In the case of “CATGGAACATGGACCGGTTTTCCCGGTAATCCGTATTTGGA (site CATGGAACTTC)”, the “recombinant UMI read abundance (log10)” value is reported as 1.99.
With “CATGGCACATGGACCGGTTTTCCCGGTAATCCGTATTTGGA (site CATGGCACTTC)” the “recombinant UMI read abundance (log10)” value was 0.46.
For “CATGTCACATGGACCGGTTTTCCCGGTAATCCGTATTTGGG (site CAAGTCACTCC)”, the “recombinant UMI read abundance (log10)” value was 0.0107.
With “CATGTCACATGGACCGGTTTTCCCGGTAATCCGTATTTGGG (site CACGTCACTCC)” the “recombinant UMI read abundance (log10)” value was 0.0251.
In the case of “CATGTCACATGGACCGGTTTTCCCGGTAATCCGTATTTGGG (site CAGGTCACTCC)”, the “recombinant UMI read abundance (log10)” value is reported as 0.0142.
In the case of “CATGTCACATGGACCGGTTTTCCCGGTAATCCGTATTTGGG (site CATGTCACTCC)”, the “recombinant UMI read abundance (log10)” value is reported as 0.00831.
For “CATGTGGCATGGACCGGTTTTCCCGGTAATCCGTATTTGCT (site CATGTGGCTAG)”, the “recombinant UMI read abundance (log10)” value was 1.39.
With “CATGTTCCATGGACCGGTTTTCCCGGTAATCCGTATTTGTT (site CATGTTCCTAA)” the “recombinant UMI read abundance (log10)” value was 0.678.
For “CATTCAACATGGACCGGTTTTCCCGGTAATCCGTATTTGAC (site CATTCAACTGT)”, the “recombinant UMI read abundance (log10)” value was 0.406.
For “CATTGTACATGGACCGGTTTTCCCGGTAATCCGTATTTGGG (site CATTGTACTCC)”, the “recombinant UMI read abundance (log10)” value was 0.0267.
For “CATTTCTCATGGACCGGTTTTCCCGGTAATCCGTATTTGTT (site CATTTCTCTAA)”, the “recombinant UMI read abundance (log10)” value was 1.52.
In the case of “CATTTGCCATGGACCGGTTTTCCCGGTAATCCGTATTTGTG (site CATTTGCCTCA)”, the “recombinant UMI read abundance (log10)” value is reported as 0.302.
For “CCAAAACCATGGACCGGTTTTCCCGGTAATCCGTATTTGTT (site CCAAAACCTAA)”, the “recombinant UMI read abundance (log10)” value was 0.00598.
For “CCAAAGGCATGGACCGGTTTTCCCGGTAATCCGTATTTGCC (site CCAAAGGCTGG)”, the “recombinant UMI read abundance (log10)” value was 0.
With “CCAACTACATGGACCGGTTTTCCCGGTAATCCGTATTTGGC (site CCAACTACTGC)” the “recombinant UMI read abundance (log10)” value was 0.
With “CCAATCGCATGGACCGGTTTTCCCGGTAATCCGTATTTGCA (site CCAATCGCTTG)” the “recombinant UMI read abundance (log10)” value was 0.
In the case of “CCAATTACATGGACCGGTTTTCCCGGTAATCCGTATTTGCC (site CCAATTACTGG)”, the “recombinant UMI read abundance (log10)” value is reported as 0.
For “CCACACACATGGACCGGTTTTCCCGGTAATCCGTATTTGCA (site CCACACACTTG)”, the “recombinant UMI read abundance (log10)” value was 2.07.
In the case of “CCACCCTCATGGACCGGTTTTCCCGGTAATCCGTATTTGCT (site CCACCCTCTAG)”, the “recombinant UMI read abundance (log10)” value is reported as 1.95.
In the case of “CCACGGACATGGACCGGTTTTCCCGGTAATCCGTATTTGGT (site CCACGGACTAC)”, the “recombinant UMI read abundance (log10)” value is reported as 0.0137.
For “CCACGGCCATGGACCGGTTTTCCCGGTAATCCGTATTTGTA (site CCACGGCCTTA)”, the “recombinant UMI read abundance (log10)” value was 0.
For “CCACGTCCATGGACCGGTTTTCCCGGTAATCCGTATTTGGT (site CCACGTCCTAC)”, the “recombinant UMI read abundance (log10)” value was 0.0291.
In the case of “CCACTTGCATGGACCGGTTTTCCCGGTAATCCGTATTTGTG (site CCACTTGCTCA)”, the “recombinant UMI read abundance (log10)” value is reported as 0.358.
In the case of “CCAGATGCATGGACCGGTTTTCCCGGTAATCCGTATTTGCG (site CCAGATGCTCG)”, the “recombinant UMI read abundance (log10)” value is reported as 1.59.
For “CCAGGATCATGGACCGGTTTTCCCGGTAATCCGTATTTGAT (site CCAGGATCTAT)”, the “recombinant UMI read abundance (log10)” value was 0.
In the case of “CCAGGCGCATGGACCGGTTTTCCCGGTAATCCGTATTTGAT (site CCAGGAGCTAT)”, the “recombinant UMI read abundance (log10)” value is reported as 1.06.
With “CCAGGCGCATGGACCGGTTTTCCCGGTAATCCGTATTTGAT (site CCAGGCGCTAT)” the “recombinant UMI read abundance (log10)” value was 1.24.
With “CCAGGCGCATGGACCGGTTTTCCCGGTAATCCGTATTTGAT (site CCAGGGGCTAT)” the “recombinant UMI read abundance (log10)” value was 0.00758.
With “CCAGGCGCATGGACCGGTTTTCCCGGTAATCCGTATTTGAT (site CCAGGTGCTAT)” the “recombinant UMI read abundance (log10)” value was 0.707.
In the case of “CCAGGGGCATGGACCGGTTTTCCCGGTAATCCGTATTTGAT (site CCAGGAGCTAT)”, the “recombinant UMI read abundance (log10)” value is reported as 0.735.
With “CCAGGGGCATGGACCGGTTTTCCCGGTAATCCGTATTTGAT (site CCAGGCGCTAT)” the “recombinant UMI read abundance (log10)” value was 0.972.
With “CCAGGGGCATGGACCGGTTTTCCCGGTAATCCGTATTTGAT (site CCAGGGGCTAT)” the “recombinant UMI read abundance (log10)” value was 1.04.
With “CCAGGGGCATGGACCGGTTTTCCCGGTAATCCGTATTTGAT (site CCAGGTGCTAT)” the “recombinant UMI read abundance (log10)” value was 0.888.
With “CCAGTACCATGGACCGGTTTTCCCGGTAATCCGTATTTGCA (site ACAGTATCTTG)” the “recombinant UMI read abundance (log10)” value was 0.
For “CCAGTACCATGGACCGGTTTTCCCGGTAATCCGTATTTGCA (site CCAGTACCTTG)”, the “recombinant UMI read abundance (log10)” value was 0.
In the case of “CCAGTATCATGGACCGGTTTTCCCGGTAATCCGTATTTGAA (site ACAGTATCTTG)”, the “recombinant UMI read abundance (log10)” value is reported as 0.128.
For “CCAGTATCATGGACCGGTTTTCCCGGTAATCCGTATTTGAA (site CCAGTATCTTT)”, the “recombinant UMI read abundance (log10)” value was 1.05.
In the case of “CCAGTATCATGGACCGGTTTTCCCGGTAATCCGTATTTGAA (site CTAGTATCTGT)”, the “recombinant UMI read abundance (log10)” value is reported as 0.
For “CCAGTATCATGGACCGGTTTTCCCGGTAATCCGTATTTGCC (site ACAGTATCTTG)”, the “recombinant UMI read abundance (log10)” value was 0.0067.
For “CCAGTATCATGGACCGGTTTTCCCGGTAATCCGTATTTGCC (site CCAGTATCTGG)”, the “recombinant UMI read abundance (log10)” value was 1.44.
With “CCAGTATCATGGACCGGTTTTCCCGGTAATCCGTATTTGCC (site CTAGTATCTGT)” the “recombinant UMI read abundance (log10)” value was 0.
For “CCAGTCACATGGACCGGTTTTCCCGGTAATCCGTATTTGGA (site CCAGTCACTTC)”, the “recombinant UMI read abundance (log10)” value was 0.00572.
For “CCAGTGTCATGGACCGGTTTTCCCGGTAATCCGTATTTGCA (site ACAGTATCTTG)”, the “recombinant UMI read abundance (log10)” value was 0.
For “CCAGTGTCATGGACCGGTTTTCCCGGTAATCCGTATTTGCA (site CCAGTGTCTTG)”, the “recombinant UMI read abundance (log10)” value was 1.5.
With “CCAGTTTCATGGACCGGTTTTCCCGGTAATCCGTATTTGAC (site CCAGTTTCTGT)” the “recombinant UMI read abundance (log10)” value was 0.759.
With “CCAGTTTCATGGACCGGTTTTCCCGGTAATCCGTATTTGAC (site CTAGTATCTGT)” the “recombinant UMI read abundance (log10)” value was 0.
In the case of “CCATAAACATGGACCGGTTTTCCCGGTAATCCGTATTTGAA (site CCATAAACTTT)”, the “recombinant UMI read abundance (log10)” value is reported as 1.22.
For “CCATACTCATGGACCGGTTTTCCCGGTAATCCGTATTTGCA (site ACATACTCTTG)”, the “recombinant UMI read abundance (log10)” value was 0.648.
For “CCATACTCATGGACCGGTTTTCCCGGTAATCCGTATTTGCA (site CCATACTCTTG)”, the “recombinant UMI read abundance (log10)” value was 2.11.
In the case of “CCATACTCATGGACCGGTTTTCCCGGTAATCCGTATTTGCA (site GCATACTCTTG)”, the “recombinant UMI read abundance (log10)” value is reported as 0.
With “CCATACTCATGGACCGGTTTTCCCGGTAATCCGTATTTGCA (site TCATACTCTTG)” the “recombinant UMI read abundance (log10)” value was 0.
For “CCATACTCATGGACCGGTTTTCCCGGTAATCCGTATTTGGC (site CCATACTCTGC)”, the “recombinant UMI read abundance (log10)” value was 0.585.
For “CCATAGCCATGGACCGGTTTTCCCGGTAATCCGTATTTGCC (site CCATAGCCTGG)”, the “recombinant UMI read abundance (log10)” value was 0.
With “CCATAGCCATGGACCGGTTTTCCCGGTAATCCGTATTTGCC (site CCCTAGCCTGG)” the “recombinant UMI read abundance (log10)” value was 0.
In the case of “CCATAGCCATGGACCGGTTTTCCCGGTAATCCGTATTTGCC (site CCGTAGCCTGG)”, the “recombinant UMI read abundance (log10)” value is reported as 0.
In the case of “CCATAGCCATGGACCGGTTTTCCCGGTAATCCGTATTTGCC (site CCTTAGCCTGG)”, the “recombinant UMI read abundance (log10)” value is reported as 0.
With “CCATAGTCATGGACCGGTTTTCCCGGTAATCCGTATTTGAA (site CCATAGTCTTT)” the “recombinant UMI read abundance (log10)” value was 1.86.
With “CCATATGCATGGACCGGTTTTCCCGGTAATCCGTATTTGCA (site CCATATGCTTG)” the “recombinant UMI read abundance (log10)” value was 0.198.
With “CCATCCTCATGGACCGGTTTTCCCGGTAATCCGTATTTGGT (site CCATCCTCTAC)” the “recombinant UMI read abundance (log10)” value was 1.38.
